For one data set, the system named is LOLRI. The experiment in a line: A. Herbicidal pre-emergence action on harmful plants (Tables A). To be noted: visual grading after ca. 3 weeks vs untreated controls, 100% = plants have died off, 0% = as control plants. It counts as in vivo, Lolium rigidum. The method in brief:
(§1)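 Values are visual percent damage relative to untreated controls, scored ca. 3 weeks after the compound was sprayed on the covering soil of sown pots (sandy loam) at rates up to 1280 g/ha, formulated as WP or EC with 0.5% additive.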

The subject of the next data set is ALOMY. The data set is described as above. It counts as in vivo, Alopecurus myosuroides. The method, boiled down:
as §1

Data set [1] relates to DIGSA. Described as above. The class given is in vivo, Digitaria sanguinalis. The method in brief:
as §1

In data set [2] the test system is ECHCG. In words: B. Herbicidal post-emergence action on harmful plants (Tables B). It counts as in vivo, Echinochloa crus-galli. To be noted: application rate 1280 g/ha; Table B2a. The method, boiled down:
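Greenhouse weeds grown in sandy loam were sprayed post-emergence at the one-leaf stage, 2-3 weeks after sowing. Compounds were applied as WP or EC in water with 0.5% additive at 600 L/ha, at 1280 g/ha or below. Visual damage was rated after about 3 weeks versus untreated plants (0-100%).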

Data set [3] relates to DIGSA. The experiment in a line: C. Herbicidal pre-emergence action, weed and crop plants (Tables C). The class given is in vivo, Digitaria sanguinalis. The method, boiled down: (§2)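 Seeds were sown in sandy loam and covered with soil. WP or EC formulations were sprayed onto the soil surface as aqueous suspension or emulsion with 0.5% additive, at rates of 320 g/ha or below. Plants were kept in a greenhouse, and damage was scored visually after about 3 weeks as % effect versus untreated controls (100% = dead, 0% = like control).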

Data set [4] has as its system ECHCG. The description is as above. The class given is in vivo, Echinochloa crus-galli. The method in brief:
as §2

The subject of another data set is SETVI. The data set is described as above. It counts as in vivo, Setaria viridis. Conditions: application rate 320 g/ha; Table C10. From the text:
Seeds of mono- and dicotyledonous weed plants and crop plants were sown, in plastic or organic planting pots, in sandy loam and covered with soil. The compounds according to the invention, formulated in the form of wettable powders (WP) or as emulsifiable concentrates (EC), were applied to the surface of the covering soil as aqueous suspension or emulsion, with the addition of 0.5% of an additive, at an application rate of 6001 of water/ha (converted). Following treatment, the pots were placed in a greenhouse and kept under optimum growth conditions for the test plants. The visual grading of the damage to the test plants was carried out after ca. 3 weeks in comparison to untreated controls (herbicidal effect in percent (%): 100% effect = plants have died off, 0% effect = as control plants). Tables C1 to C12 below show the effects of selected compounds of the general formula (I) according to table 1 on various harmful plants and an application rate corresponding to 320 g/ha or below obtained by the experimental procedure mentioned above. Table C1: pre-emergence activity at 320g/ha against KCHSC in %

For a further data set, the system named is GLXMA. The experiment in a line: D. Pre-emergence effects on crop plants (Tables D). It counts as in vivo, Glycine max. Conditions: crop plant; application rate 80 g/ha; Table D4b. The method in brief:
(§3)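 Seeds sown in sandy loam and covered; WP or EC formulations sprayed onto the soil surface as aqueous suspension/emulsion with 0.5% additive, at 320 g/ha or below. Greenhouse-grown; visual damage scored after ca. 3 weeks against untreated controls (0% = as control, 100% = plants dead).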

For data set [5], the system named is BRSNW. In words: D. Pre-emergence effects on crop plants (Tables D). The class given is in vivo, Brassica napus. To be noted: crop plant. The method in brief:
as §3

For data set [6], the system named is BRSNW. The experiment in a line: F. Post-emergence effects on crop plants (Tables F). It counts as in vivo, Brassica napus. Conditions: application rate 320 g/ha, crop plant. The method in brief:
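Plants were grown in sandy loam in a greenhouse and sprayed post-emergence at the single-leaf stage, 2–3 weeks after sowing. Visual damage was scored after ca. 3 weeks against untreated controls (0% = as control, 100% = dead).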

Where [7] appears, read: application rate 1280 g/ha, Table A9a.
Where [8] appears, read: application rate 320 g/ha, Table A12b.
The mark [9] stands for this setting: application rate 1280 g/ha, Table A12a.
[10] abbreviates: application rate 80 g/ha, Table C5b.
Where [11] appears, read: application rate 320 g/ha, Table C5a.
Setting [12] is: application rate 80 g/ha, Table C6b.
Setting [13] is: application rate 320 g/ha, Table C6a.

The results in this text go back to patent EP4417602A1, “SUBSTITUTED PYRAZOLE CARBOXAMIDES, SALTS THEREOF AND THEIR USE AS HERBICIDALLY ACTIVE SUBSTANCES” (Bayer AG, priority 2023, dated 2024).

Turning to `CNC(=O)n1cc(C(=O)N2CCCC2Cc2ccccc2F)c(COC)n1` (racemic) [Example I-051], the “pre-emergence activity against LOLRI” value with LOLRI (application rate 80 g/ha), with LOLRI (application rate 320 g/ha) and in the data set with LOLRI (application rate 1280 g/ha) was 100% throughout. Further, the “pre-emergence activity against ALOMY” value came out at 90% in the data set with ALOMY (application rate 320 g/ha, Table A9b) and 90% in the data set with ALOMY (setting [7]). For the same compound, the “pre-emergence activity against DIGSA” value came out at 90% in the data set on DIGSA [1] (setting [8]), 90% in the data set on DIGSA [1] (setting [9]), 90% in the data set with DIGSA [3] (setting [10]) and 100% with DIGSA [3] (setting [11]). Moreover, the “post-emergence activity against ECHCG” value in the data set with ECHCG [2] stood at 90%. The “pre-emergence activity against ECHCG” value in the data set with ECHCG [4] (setting [12]) and in the data set on ECHCG [4] (setting [13]) was 100% in each case. Also, in the data set on SETVI, the “pre-emergence activity against SETVI” value is reported as 80%. For the same compound, the “pre-emergence activity against GLXMA” value in the data set with GLXMA came to 0%. In addition, the “pre-emergence activity against BRSNW in %” value in the data set on BRSNW [5] (application rate 80 g/ha) and in the data set with BRSNW [5] (application rate 320 g/ha) was 0% throughout. In addition, in the data set on BRSNW [6], the “post-emergence activity against BRSNW in %” value was 20%.
On to `COCc1nn(C(=O)OC(C)(C)C)cc1C(=O)N1CCCC1Cc1ccccc1F` (racemic) [Example I-040], for which the “pre-emergence activity against LOLRI” value in the data set with LOLRI (application rate 320 g/ha) amounted to 90%; with LOLRI (application rate 1280 g/ha) it was 100%. Further, the “pre-emergence activity against ALOMY” value in the data set on ALOMY (setting [7]) was determined as 90%. The “pre-emergence activity against DIGSA” value with DIGSA [1] (setting [8]) amounted to 90%; in the data set on DIGSA [1] (setting [9]) it was 100%; in the data set with DIGSA [3] (setting [10]) it was 80%; in the data set with DIGSA [3] (setting [11]), 90%. Further, in the data set on ECHCG [2], the “post-emergence activity against ECHCG” value stood at 90%. The “pre-emergence activity against ECHCG” value in the data set with ECHCG [4] (setting [12]) is 80%; in the data set with ECHCG [4] (setting [13]) it was 90%. Further, in the data set with SETVI, the “pre-emergence activity against SETVI” value was 80%. Also, the “pre-emergence activity against GLXMA” value with GLXMA was determined as 0%. The “pre-emergence activity against BRSNW in %” value in the data set with BRSNW [5] (application rate 80 g/ha) and with BRSNW [5] (application rate 320 g/ha) was 0% throughout. The “post-emergence activity against BRSNW in %” value in the data set with BRSNW [6] was found to be 0%.
